Laboratory results taken from paper PMC7529893, “Structural basis for substrate recognition and chemical inhibition of oncogenic MAGE ubiquitin ligases” (Nature Communications, 2020).

Target: T1, MAGE-A11:PCF11 interaction (GST-MAGE-A11 and FAM-PCF11_4) (Homo sapiens, UniProt P43364)
T1 construct: GST-MAGE-A11 MHD (human MAGE-A11 MHD amino acid 218-429); made in house; host or cells: E. coli BL21(DE3)
T1 sequence (P43364 218-429): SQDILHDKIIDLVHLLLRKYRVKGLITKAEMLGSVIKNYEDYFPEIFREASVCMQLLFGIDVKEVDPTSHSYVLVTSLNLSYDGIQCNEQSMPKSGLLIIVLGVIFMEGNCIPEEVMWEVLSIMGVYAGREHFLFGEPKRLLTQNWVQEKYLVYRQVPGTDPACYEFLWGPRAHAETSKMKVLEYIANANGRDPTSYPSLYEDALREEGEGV
Test: TR-FRET primary / single point screen at 15 µM
Assay type: binding
Details: single point TR-FRET screening of 797 quinoline compounds against MAGE-A11:PCF11
Description: The TR-FRET assay buffer with a formula of 50 mM Tris pH 7.5, 20 mM MgCl2, 0.1 mg/ml BSA and 1 mM DTT was freshly prepared before each experiment. All TR-FRET assays were performed in black 384-well plates with 20 µl/well assay volume in the TR-FRET assay buffer at room temperature (~25 °C). All peptides or compounds were solubilized in DMSO. To test the competitive activity of peptides or compounds against the interaction between GST-MAGE-A11 MHD and FAM-PCF11_4 peptide, 10 µl/well peptide or compound at specified concentration was dispensed into a black 384-well low volume plate, followed by 5 µl/well FAM-PCF11_4 (800 nM), 5 µl/well Tb-anti-GST (20 nM), and GST-MAGE-A11 MHD (20 nM). The assay components in each well was then mixed by shaking the plate on an IKA MTS 2/4 digital microtiter plate shaker (IKA Works; Wilmington, NC, USA) for 1 min. The plate was further centrifuged in an Eppendorf 5810 centrifuge with an A-4-62 swing-bucket rotor (Eppendorf AG, Hamburg, Germany) at 201 g for 30 s. The plate was then incubated for 90 min with a lid to avoid light exposure to the assay components. After incubation, the fluorescent emission signals at 520 nm and 490 nm channels of individual wells were measured with a PHERAstar FS plate reader (BMG Labtech; Durham, NC, USA) by using a 340 nm excitation filter, 100 µs delay time, and 200 µs integration time. The TR-FRET fluorescence emission ratio (TR-FRET signal) for each well was presented as 10,000 × 520 nm/490 nm, which was used directly for curve fitting, or further converted to %Inhibition based on the respective positive and negative controls. The graphic software GraphPad Prism 4.81 (GraphPad Software; La Jolla, CA, USA) was used to generate curves and derive IC50 values of tested peptides or compounds, if applicable. TR-FRET screen for identifying MAGE-A11 small molecule inhibitors was performed as follows. The primary one-concentration screening and subsequent 10 or 20-concentration dose-response tests were accomplished with an automated High Throughput Screening system (HighRes Biosolutions, Beverly, MA)[30]. In the primary screening, 15 µl/well FAM-PCF11_4 (267 nM) was first dispensed with a Multidrop Combi Reagent Dispenser (Thermo Fisher Scientific, Waltham, MA) to black 384-well low-volume assay plates. The plates were spun down with a Velocity11 VSpin microplate centrifuge (Agilent Technologies, Santa Clara, CA). In total, 30 nl/well of 10 mM compound/DMSO solutions, or DMSO alone, were transferred from compound plates (the St. Jude FDA drug and bioactive library, Drug-like library and Lead-like library) or a control plate to the assay plates with a Pin Tool (V&P Scientific, San Diego, CA). The compounds were arrayed in columns 3–12 and columns 15–24 of compound plates. The controls were arrayed in columns 1, 2, 13, and 14 of a compound plate. In all, 5 µl/well Tb-anti-GST (20 nM) and GST-MAGE-A11 (20 nM) or 5 µl/well Tb-anti-GST (20 nM) alone was then dispensed to selected wells with a Multidrop Combi Reagent Dispenser. The final assay volume was 20 µl/well. […] The final tested compound concentration was 15 µM. The final FAM-PCF11_4 concentration was 200 nM and the final Tb-anti-GST concentration was 5 nM. The final GST-MAGE-A11 concentration was 5 nM except for those selected positive control wells in which GST-MAGE-A11 was not presented. The plates were then shaken with a big bear shaker (Big Bear Automation, Santa Clara, California) and spun down with the Velocity11 VSpin microplate centrifuge for 20 s. The plates were then incubated at room temperature in a Liconic incubator (Liconic US, Woburn, MA) for 90 min. The TR-FRET signals for individual wells were measured with a PHERAstar FS plate reader. The %Inhibition of each tested inhibitor was calculated by using Eq. 1. Those inhibitors with %Inhibition >30% in the primary screening were selected for further dose-response test, along with additional newly synthesized compounds. […]

Compound	percent inhibition (TR-FRET)
COc1ccc2ncc(S(=O)(=O)c3ccc(C)c(C)c3)c(N3CCN(c4ccccc4F)CC3)c2c1 [SJ000117078]	-8.289
CCc1ccc(S(=O)(=O)c2cnc3ccccc3c2N2CCN(c3ccccc3F)CC2)cc1 [SJ000117079]	-56.5833
Cc1ccc(S(=O)(=O)c2cnc3ccccc3c2N2CCN(c3ccc(C)cc3C)CC2)cc1 [SJ000117080]	3.172
Cc1cccc(N2CCN(c3c(S(=O)(=O)c4ccccc4)cnc4ccccc34)CC2)c1C [SJ000117081]	-13.1252
COc1ccc2ncc(S(=O)(=O)c3ccccc3)c(N3CCN(c4cccc(C)c4C)CC3)c2c1 [SJ000117082]	-241.81
Cc1ccc(C)c(N2CCN(c3c(S(=O)(=O)c4ccccc4)cnc4ccc(F)cc34)CC2)c1 [SJ000117083]	-15.3776
COc1ccc2ncc(S(=O)(=O)c3ccc(C)cc3)c(N3CCN(Cc4ccccc4)CC3)c2c1 [SJ000117085]	-82.2209
CCOC(=O)c1cnc2ccc(C(=O)OC)cc2c1NCCN1CCOCC1 [SJ000127079]	-7.813
CCOC(=O)c1cnc2c(C)cc(Cl)cc2c1NCCN1CCOCC1 [SJ000129560]	4.96
CCOC(=O)c1cnc2c(C)c(C)ccc2c1NCCN(C)C [SJ000134078]	8.5376
CCOC(=O)c1cnc2c(Cl)cccc2c1NCCN1CCOCC1 [SJ000163436]	-6.529
CCOC(=O)c1cnc2c(Cl)cc(Cl)cc2c1NCCN1CCOCC1 [SJ000175864]	-13.059
CCOC(=O)c1cnc2c(C(=O)OC)cccc2c1NCCN1CCOCC1 [SJ000184799]	4.043
CCOC(=O)c1cnc2ccc(Cl)cc2c1N1CCN(C)CC1 [SJ000187322]	-0.9277
CC(=O)Nc1ccc(S(=O)(=O)N2CCN(c3ccnc4cc(Cl)ccc34)CC2)cc1 [SJ000193862]	-16.1911
COc1ccc(S(=O)(=O)N2CCN(c3ccnc4cc(Cl)ccc34)CC2)cc1 [SJ000199955]	-32.0719
O=S(=O)(c1ccc(Br)cc1)N1CCN(c2ccnc3cc(Cl)ccc23)CC1 [SJ000201754]	-16.7513
O=S(=O)(c1ccc(F)cc1)N1CCN(c2ccnc3cc(Cl)ccc23)CC1 [SJ000203833]	-50.6426
O=S(=O)(c1ccc(Cl)cc1)N1CCN(c2ccnc3cc(Cl)ccc23)CC1 [SJ000204656]	-34.3905
C=CCOCC(O)CN1CCN(c2cc(C)nc3ccccc23)CC1 (stereo not shown) [SJ000227652]	-0.207
C#CCOCC(O)CN1CCN(c2cc(C)nc3ccccc23)CC1 (stereo not shown) [SJ000227655]	6.55
C=CCOCC(O)CN1CCN(c2cc(C(F)(F)F)nc3ccccc23)CC1 (stereo not shown) [SJ000228017]	-2.128
O=S(=O)(c1ccccc1)c1cnc2ccc(Cl)cc2c1N1CCN(Cc2ccccc2)CC1 [SJ000247242]	-30.2832
Cc1ccc2ncc(S(=O)(=O)c3ccccc3)c(N3CCN(Cc4ccccc4)CC3)c2c1 [SJ000247256]	2.673
CCOc1ccc2ncc(C(=O)c3ccc(OC)cc3)c(N3CCN(C)CC3)c2c1 [SJ000247277]	-18.955
CCOc1ccc2ncc(C(=O)c3ccccc3)c(N3CCN(CC)CC3)c2c1 [SJ000247283]	-0.2733

Other lines, results leading:

percent inhibition (TR-FRET)	Compound
2.443	Cc1ccc(S(=O)(=O)c2cnc3ccccc3c2N2CCN(c3cc(C)ccc3C)CC2)cc1 [SJ000117084]
-55.2584	CCc1ccc(S(=O)(=O)c2cnc3ccccc3c2N2CCN(Cc3ccccc3)CC2)cc1 [SJ000117086]
8.869	CCOC(=O)c1cnc2c(C)cc(C)cc2c1NCCN1CCOCC1 [SJ000172983]
-38.6966	Cc1ccc(S(=O)(=O)N2CCN(c3ccnc4cc(Cl)ccc34)CC2)cc1 [SJ000192519]
-4.954	Cc1cc(N2CCN(CC(O)CO)CC2)c2ccccc2n1 (stereo not shown) [SJ000227653]
-3.251	Cc1cc(N2CCN(CC(O)COCC(C)C)CC2)c2ccccc2n1 (stereo not shown) [SJ000227654]
-9.5157	C#CCOCC(O)CN1CCN(c2cc(C(F)(F)F)nc3ccccc23)CC1 (stereo not shown) [SJ000228018]
-9.084	CCOc1ccc2ncc(C(=O)c3ccc(OC)cc3)c(N3CCN(CC)CC3)c2c1 [SJ000247243]
-2.393	COc1ccc2ncc(C(=O)c3ccccc3)c(N3CCN(C)CC3)c2c1 [SJ000247245]
-71.1577	COc1ccc2ncc(S(=O)(=O)c3ccccc3)c(N3CCN(Cc4ccccc4)CC3)c2c1 [SJ000247248]
-15.9076	CCOc1ccc2ncc(S(=O)(=O)c3ccccc3)c(N3CCN(Cc4ccccc4)CC3)c2c1 [SJ000247249]
-10.6078	CCOc1ccc2ncc(C(=O)c3ccc(C)cc3)c(N3CCN(C)CC3)c2c1 [SJ000247254]
-62.2806	O=S(=O)(c1ccccc1)c1cnc2ccc(F)cc2c1N1CCN(Cc2ccccc2)CC1 [SJ000247257]
-13.5889	Cc1ccc(S(=O)(=O)c2cnc3ccccc3c2N2CCN(C)CC2)cc1 [SJ000247268]
-2.261	CCc1ccc2ncc(C(=O)c3ccccc3)c(N3CCN(CC)CC3)c2c1 [SJ000247281]
3.9003	CCN1CCN(c2c(C(=O)c3ccc(C)cc3)cnc3ccc(OC)cc23)CC1 [SJ000247282]

Same assay, conditions: single point TR-FRET screening of quinoline compounds against MAGE-A11:PCF11; 15 µM

Compound	percent inhibition (TR-FRET)
CCOC(=O)c1cnc2ccc(OC)cc2c1NCCCN1CCOCC1 [SJ000127046]	2.945
CCOC(=O)c1cnc2c(C)c(Cl)ccc2c1NCCCN1CCOCC1 [SJ000129912]	-23.261
CCOC(=O)c1cnc2c(C)cc(C)cc2c1NCCCN1CCOCC1 [SJ000173725]	6.494
CCOC(=O)c1cnc2c(C)cc(Cl)cc2c1NCCCN1CCOCC1 [SJ000174094]	-10.5199
CCOC(=O)c1cnc2ccc(Br)cc2c1NCCCN1CCOCC1 [SJ000176507]	-22.0025
CCOC(=O)c1cnc2c(OC)cccc2c1NCCCN1CCOCC1 [SJ000180455]	3.635
CCOC(=O)c1cnc2c(CC)cccc2c1NCCCN1CCOCC1 [SJ000185196]	-4.499

Results, then the compound that gave them:

percent inhibition (TR-FRET)	Compound
10.0613	CCOC(=O)c1cnc2c(C(F)(F)F)cccc2c1NCCCN1CCOCC1 [SJ000131358]
-2.118	CCOC(=O)c1cnc2c(Cl)cc(Cl)cc2c1NCCCN1CCOCC1 [SJ000176476]
11.255	CCOC(=O)c1ccc2ncc(C(=O)OCC)c(NCCCN3CCOCC3)c2c1 [SJ000176583]
